≈ marks a conversion by molar mass, not a printed value.
details: not given

Compound | logP
CCOP(=O)(OCC)SCS(=O)(=O)CC | 1.98

same assay, conditions: 20 °C

Compound | solubility [µM]
CCOP(=O)(OCC)OC(=CCl)c1ccc(Cl)cc1Cl | 345 (≈ 124 µg/mL)
COP(=S)(OC)SCSc1ccc(Cl)cc1 | 5.08 (≈ 1.6 µg/mL)
COc1nn(CSP(=S)(OC)OC)c(=O)s1 | 619 (≈ 187 µg/mL)
COP(=S)(OC)Oc1ccc([N+](=O)[O-])cc1 | 143 (≈ 37.7 µg/mL)
CCOC(=O)CC(SP(=S)(OC)OC)C(=O)OCC (configuration not stated) | 433 (≈ 143 µg/mL)
COP(=S)(OC)Oc1ccc([N+](=O)[O-])cc1Cl | 49.4 (≈ 14.7 µg/mL)
COP(=S)(OC)Oc1ccc(SC)c(C)c1 | 26.9 (≈ 7.5 µg/mL)
COP(=S)(OC)SCN1C(=O)c2ccccc2C1=O | 76.9 (≈ 24.4 µg/mL)
CCOP(=S)(OCC)SCn1nnc2ccccc2c1=O | 30.4 (≈ 10.5 µg/mL)
CNC(=O)Oc1ccccc1OC(C)C | 8890 (≈ 1860 µg/mL)
CNC(=O)Oc1ccc(N(C)C)c(C)c1 | 4390 (≈ 915 µg/mL)

Source: the OPERA property sets (Mansouri et al. 2018)
